Data taken from ChEMBL document CHEMBL1201862, “PubChem BioAssay data set” (2004).
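In this assay, cells in 96-well plates receive the compound at five concentrations for 48 hours. Endpoints are linearly interpolated between the surrounding concentrations. GI50 is the concentration that inhibits growth by half.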 Calls of active or inactive are those of the source. Cut-off read from the data, not from the text of the source: active = GI50 up to about 1.1 µM and inactive = higher.

Legend:
Experiment in all cases: DTP human tumour cell line panel, 48 h
786-0 = system: 786-0
A549 = system: A549
BT-549 = system: BT-549
CAKI-1 = system: CAKI-1
HCC 2998 = system: HCC 2998
IGROV-1 = system: IGROV-1
K562 = system: K562
MDA-MB-231 = system: MDA-MB-231
MDA-N = system: MDA-N
NCI-H460 = system: NCI-H460
OVCAR-3 = system: OVCAR-3
OVCAR-5 = system: OVCAR-5
RXF 393 = system: RXF 393
SF-268 = system: SF-268
SF-539 = system: SF-539
SK-OV-3 = system: SK-OV-3
SR = system: SR
UACC-257 = system: UACC-257
SK-MEL-28 = system: SK-MEL-28
NCI-H522 = system: NCI-H522

SMILES | GI50 (786-0) | GI50 (A549) | GI50 (BT-549) | GI50 (CAKI-1) | GI50 (HCC 2998) | GI50 (IGROV-1) | GI50 (K562) | GI50 (MDA-MB-231) | GI50 (MDA-N) | GI50 (NCI-H460) | GI50 (OVCAR-3) | GI50 (OVCAR-5) | GI50 (RXF 393) | GI50 (SF-268) | GI50 (SF-539) | GI50 (SK-OV-3) | GI50 (SR) | GI50 (UACC-257) | GI50 (SK-MEL-28) | GI50 (NCI-H522)
Cc1c(C#N)c2nnn(-c3ccccc3)c(=O)n2c1-c1ccccc1 | 1.67 µM (inactive) | 1.29 µM (inactive) | 5.42 µM (inactive) | 2.42 µM (inactive) | 3.34 µM (inactive) | 1.48 µM (inactive) | 0.236 µM (active) | 12.3 µM (inactive) | 0.179 µM (active) | 1.92 µM (inactive) | 0.824 µM (active) | 1.89 µM (inactive) | 2.48 µM (inactive) | 7.85 µM (inactive) | 1.17 µM (inactive) | 1.41 µM (inactive) | 0.863 µM (active) | 25.4 µM (inactive) |  | 
CC(C)CCCC(C)[C@H]1CC[C@H]2NCCCC[C@]12C (stereo partly drawn) | 3.78 µM (inactive) | 6.64 µM (inactive) | 9.38 µM (inactive) | 7.05 µM (inactive) | 1.37 µM (inactive) | 6.19 µM (inactive) | 2.01 µM (inactive) | 2.92 µM (inactive) | 1.96 µM (inactive) | 2.02 µM (inactive) | 11.9 µM (inactive) | 2.53 µM (inactive) | 2.14 µM (inactive) | 13.1 µM (inactive) | 5.92 µM (inactive) | 14.3 µM (inactive) | 2.07 µM (inactive) | 3.83 µM (inactive) | 2.37 µM (inactive) | 
CCOC(=O)CC/C(=N/Nc1ccc(Cl)cc1[N+](=O)[O-])C(=O)OCC | > 100 µM (inactive) | > 100 µM (inactive) | > 100 µM (inactive) |  | 26.2 µM (inactive) | > 100 µM (inactive) | > 100 µM (inactive) | > 100 µM (inactive) | > 100 µM (inactive) | > 100 µM (inactive) | > 100 µM (inactive) | > 100 µM (inactive) | > 100 µM (inactive) | > 100 µM (inactive) | > 100 µM (inactive) | > 100 µM (inactive) | 45.7 µM (inactive) | > 100 µM (inactive) | > 100 µM (inactive) | > 100 µM (inactive)
COC(=O)C(CCSC)NC(=O)CSc1nnc(COc2ccc(Cl)cc2)n1-c1ccccc1 (stereo not drawn) | 16.3 µM (inactive) | 26.8 µM (inactive) | 19.6 µM (inactive) | 16.7 µM (inactive) | 7.52 µM (inactive) | 16 µM (inactive) | 24.5 µM (inactive) | 17 µM (inactive) | 18.9 µM (inactive) | 14.4 µM (inactive) |  | 19.5 µM (inactive) | 19.1 µM (inactive) | 17.1 µM (inactive) | 18.4 µM (inactive) | 14.5 µM (inactive) | 8.53 µM (inactive) | 16.9 µM (inactive) | 17.4 µM (inactive) | 3.77 µM (inactive)
CC/C(N)=N\NC(=O)OC(C)(C)C | > 100 µM (inactive) | > 100 µM (inactive) | > 100 µM (inactive) | > 100 µM (inactive) | > 100 µM (inactive) | > 100 µM (inactive) | > 100 µM (inactive) | > 100 µM (inactive) | > 100 µM (inactive) |  | > 100 µM (inactive) | > 100 µM (inactive) | > 100 µM (inactive) | > 100 µM (inactive) | > 100 µM (inactive) | > 100 µM (inactive) | > 100 µM (inactive) | > 100 µM (inactive) | > 100 µM (inactive) | > 100 µM (inactive)
COc1cc(OC)c2c(=O)cc(-c3ccccc3F)[nH]c2c1 | 47.9 µM (inactive) | 38.5 µM (inactive) | > 100 µM (inactive) | 61.5 µM (inactive) | 18.6 µM (inactive) | 37.5 µM (inactive) | 53.3 µM (inactive) | 76.7 µM (inactive) | 25.8 µM (inactive) | 37.9 µM (inactive) | 57 µM (inactive) | 73.3 µM (inactive) | 29.8 µM (inactive) | 39.2 µM (inactive) |  | 91.2 µM (inactive) | 60.8 µM (inactive) | > 100 µM (inactive) | > 100 µM (inactive) | 27 µM (inactive)
COc1c2cc(C(C)(C)C)cc1Cc1cccc(c1OCc1cccc([N+](=O)[O-])c1)Cc1cc(C(C)(C)C)cc(c1OC)Cc1cccc(c1OCc1cccc([N+](=O)[O-])c1)Cc1cc(C(C)(C)C)cc(c1OC)Cc1cccc(c1OCc1cccc([N+](=O)[O-])c1)C2 | > 50 µM (inactive) | > 50 µM (inactive) | 0.005 µM (active) | > 50 µM (inactive) | > 50 µM (inactive) | > 50 µM (inactive) | > 50 µM (inactive) | > 50 µM (inactive) | > 50 µM (inactive) | > 50 µM (inactive) | > 50 µM (inactive) | > 50 µM (inactive) | > 50 µM (inactive) | > 50 µM (inactive) | > 50 µM (inactive) |  | > 50 µM (inactive) | > 50 µM (inactive) | > 50 µM (inactive) | > 50 µM (inactive)
COc1cc2c(c(O)c1OC)C(=O)C1CCC(=O)N1C2c1cccc2ccccc12 (stereo not drawn) | > 100 µM (inactive) | 28.8 µM (inactive) | 45 µM (inactive) | 85.1 µM (inactive) |  | 36.1 µM (inactive) | 18.9 µM (inactive) | 23.8 µM (inactive) | 40.8 µM (inactive) | 32.3 µM (inactive) | 30.6 µM (inactive) | 94.4 µM (inactive) | 21.4 µM (inactive) | 57.8 µM (inactive) | 41.5 µM (inactive) | 18.7 µM (inactive) | 26.5 µM (inactive) | 30.1 µM (inactive) | 73.6 µM (inactive) | 23.7 µM (inactive)
CC(=O)NC(=N/N=C1/C(=O)Nc2ccc(C)cc21)NC(C)=O | > 100 µM (inactive) | > 100 µM (inactive) | > 100 µM (inactive) | > 100 µM (inactive) | > 100 µM (inactive) | > 100 µM (inactive) | > 100 µM (inactive) | > 100 µM (inactive) | > 100 µM (inactive) | > 100 µM (inactive) |  | > 100 µM (inactive) | 68.1 µM (inactive) | > 100 µM (inactive) |  | > 100 µM (inactive) | > 100 µM (inactive) | > 100 µM (inactive) | > 100 µM (inactive) | > 100 µM (inactive)
N#CC1=C(S)N(C2OC(CO)C(O)C(O)C2O)C(c2ccccc2)=CC1c1ccccc1 (stereo not drawn) | 37.9 µM (inactive) | > 100 µM (inactive) | 55.2 µM (inactive) | > 100 µM (inactive) | 18.5 µM (inactive) | 46 µM (inactive) | 30.1 µM (inactive) | 64.3 µM (inactive) | 37.2 µM (inactive) | 37.6 µM (inactive) | 28.3 µM (inactive) | > 100 µM (inactive) | 25.2 µM (inactive) | 56.5 µM (inactive) | 24.7 µM (inactive) |  | 35 µM (inactive) | 51.6 µM (inactive) | 45 µM (inactive) | 50.6 µM (inactive)
CN(C)c1ccc(-c2nc(-c3cc4c(ccc5ccccc54)oc3=O)cs2)cc1 | > 100 µM (inactive) | > 100 µM (inactive) | > 100 µM (inactive) | > 100 µM (inactive) | > 100 µM (inactive) | > 100 µM (inactive) | > 100 µM (inactive) | > 100 µM (inactive) | > 100 µM (inactive) | > 100 µM (inactive) |  | > 100 µM (inactive) | > 100 µM (inactive) | > 100 µM (inactive) | > 100 µM (inactive) | > 100 µM (inactive) | > 100 µM (inactive) | > 100 µM (inactive) | > 100 µM (inactive) | > 100 µM (inactive)
COC(=O)[C@H](Cc1c[nH]c2ccccc12)NC(=O)c1ccc(CNC(=O)/C=C/c2cccc(Oc3ccccc3)c2)cc1 | > 100 µM (inactive) | 92.9 µM (inactive) | 39.9 µM (inactive) | > 100 µM (inactive) | 89.9 µM (inactive) | > 100 µM (inactive) | 63.5 µM (inactive) | > 100 µM (inactive) | 5.38 µM (inactive) | 83 µM (inactive) | > 100 µM (inactive) | > 100 µM (inactive) | 7.73 µM (inactive) | > 100 µM (inactive) |  | > 100 µM (inactive) | 22.4 µM (inactive) | 15.7 µM (inactive) | 29.2 µM (inactive) | 
COC(=O)c1c(OC(C)=O)ccc2c1c1cc3ccccc3c(OC(C)=O)c1n2C | 11 µM (inactive) | 19.9 µM (inactive) | 14.6 µM (inactive) | 11.8 µM (inactive) | 33.6 µM (inactive) | 2.73 µM (inactive) | 21.4 µM (inactive) | 30 µM (inactive) | 33.8 µM (inactive) | 10.4 µM (inactive) | 23.9 µM (inactive) | 53.5 µM (inactive) | 24.8 µM (inactive) | 27.7 µM (inactive) | 17.5 µM (inactive) | 6.65 µM (inactive) | 3.69 µM (inactive) |  | 84.5 µM (inactive) | 4.97 µM (inactive)
COc1ccc(C(=O)/C=C/c2ccc(Oc3cc(C(=O)/C=C/c4ccc(O)cc4)c(O)cc3OC)cc2)c(O)c1 [RHUSCHALCONE I] | 2.51 µM (inactive) | 8.71 µM (inactive) | 10.4 µM (inactive) | 4.1 µM (inactive) |  | 2.59 µM (inactive) | 3.66 µM (inactive) | 3.63 µM (inactive) | 3.48 µM (inactive) | 4.33 µM (inactive) | 4.3 µM (inactive) | 4.19 µM (inactive) | 2.56 µM (inactive) | 5.19 µM (inactive) | 2.19 µM (inactive) | 9.86 µM (inactive) | 1.92 µM (inactive) | 25.5 µM (inactive) | 2.74 µM (inactive) | 2.81 µM (inactive)
